Entries after “also recorded” stand apart in the source; their conditions may differ. Counter-ions that a name gives are not always drawn.
How the values were obtained:
Leuprolide = experiment: Photochemical labeling of leuprolide with pyridinium salt (General Procedure B, LC/MS); format: biochemical; conditions: 10 μM leuprolide, 100 μM pyridinium salt, 300 μM glutathione, 30 min
Method: (§1) General Procedure B: Photochemical Irradiation of Peptides and Proteins: To a 2 mL Pyrex LC/MS vial (Thermo model #03-391-39) were sequentially added solutions containing the desired biomolecule, glutathione (GSH), pyridinium salt, and ammonium acetate (NH4OAc). The resulting solution was diluted to a final volume of 500 μL and then sparged using nitrogen for a minimum of 30 minutes prior to irradiation. The actively sparging solution was then placed in an EvoluChem™ PhotoRedOx Box photoreactor that was equipped with a Kessil, PR160 427 nm LED Lamp and was then irradiated (100% lamp intensity) for the designated time at room temperature while maintaining active sparging. The resultant reaction mixture was then analyzed directly by LC/MS. Analysis of labeling outcomes using LC/MS was performed either by extracted ion chromatogram intensities (method A) or by integrating the area under the peaks associated with peptide content (method B). These values were totaled, and estimated percentages were assigned according to relative intensities of peaks or ion counts.
Labeling of Leuprolide with Pyridinium Salt 2a (Leuprolide-2a Conjugate). […] The reaction mixture was analyzed directly by LC/MS using method B and was estimated to have proceeded with 91% conversion, a >20:1 mono:di labeled ratio, and 4% of +1 label+glutathionylation. […]

chymotrypsinogen = molecular target: T1, chymotrypsinogen (Bos taurus, UniProt P00766); experiment: Photochemical labeling of chymotrypsinogen with pyridinium salt (General Procedure B, LC/MS); format: biochemical, bovine; conditions: trypsin digest
T1 construct: α-Chymotrypsinogen A from bovine pancreas; purchased Sigma Aldrich; host or cells: bovine pancreas
Method: as §1
Labeling of Chymotrypsinogen with pyridinium salt 2a (Chymotrypsinogen-2a Conjugate). […] The reaction mixture was directly analyzed by LC/MS using method A and was estimated to have proceeded with 90% conversion with a 20.7:8.3:1 mono:di:tri labeled ratio and 4% glutathionylation of all unlabeled and labeled protein content. […]

How did the “+1 label+glutathionylation” value (Leuprolide) turn out when COC(=O)N(C)[n+]1c(C)cc(-c2ccc3cc(OC)ccc3c2)cc1C [pyridinium salt 2a, 1-((methoxycarbonyl)(methyl)amino)-4-(6-methoxynapthalen-2-yl)-2,6-dimethylpyridin-1-ium tetrafluoroborate] was run?
Its value is 4%.

And the “Modified Trp” value (chymotrypsinogen)?
Its value is “Trp-215; also recorded: Trp-237”.

— patent US20240262845A1, “PYRIDINIUM SALTS, METHODS OF MAKING, AND METHODS OF USE” (UNIVERSITY OF WYOMING, priority 2023, published 2024)
